Consider 21 molecules from ChEMBL document CHEMBL3400134, “Synthesis and biological evaluation of fluconazole analogs with triazole-modified scaffold as potent antifungal agents” (Bioorg Med Chem, 2015).

The subject of one series is Cryptococcus neoformans. Kind of series: Antifungal activity against Cryptococcus neoformans IFRC 192 after 24 to 168 hrs by broth microdilution assay. The format is functional. (Broth dilution looks for growth in wells or tubes with falling amounts of substance.)
Series [1] relates to Candida albicans. Kind of series: Antifungal activity against Candida albicans PTCC 6027 after 24 to 168 hrs by broth microdilution assay. In kind it is functional.
Series [2] has as its system Candida albicans. In words: Antifungal activity against Candida albicans ATCC 18804 after 24 to 168 hrs by broth microdilution assay. The format is functional.
The test system of series [3] is Nakaseomyces glabratus. In words: Antifungal activity against Candida glabrata IFRC 339 after 24 to 168 hrs by broth microdilution assay. In kind it is functional.
A further series concerns Aspergillus fumigatus. Kind of series: Antifungal activity against Aspergillus fumigatus ATCC 1028 after 24 to 168 hrs by broth microdilution assay. In kind it is functional.
The nature of series [4]: Stability of the compound in deuterated DMSO at RT after 2 weeks by 1H-NMR spectroscopy. In kind it is physicochemical. Particulars: 336 h.
For series [5], the system named is Nakaseomyces glabratus. In words: Ratio of fluconazole MIC to compound MIC for Candida glabrata IFRC 339. In kind it is functional.
The subject of series [6] is Candida albicans. Kind of series: Ratio of fluconazole MIC to compound MIC for Candida albicans PTCC 6027. The format is functional.
Series [7] can be described thus: Stability of the compound in PBS at 0.15 to 6 ug/ml at pH 5.8 to 8 at RT after 2 weeks by UV spectrophotometry. Conditions: buffer, pH 5.8, 336 h. In kind it is physicochemical.
The test system of series [8] is Candida albicans. In words: Ratio of fluconazole MIC to compound MIC for Candida albicans ATCC 18804. In kind it is functional.
Another series concerns HepG2. Kind of series: Cytotoxicity against human HepG2 cells after 2 days by MTT assay. Particulars: HepG2, 48 h. The format is cell-based.

Molecules are shown by their SMILES. Values after ≈ are worked out from the molar mass of the structure shown.

As a reminder, the MIC is the least concentration at which growth counts as inhibited. With `OC(CSc1nnc(-c2ccccc2)[nH]1)(Cn1cncn1)c1ccc(F)cc1F` (centres undefined), the MIC in the series with Cryptococcus neoformans is > 128 µg/mL; in the series with Candida albicans [1] it was 8 µg/mL (≈ 19.3 µM); in the series on Candida albicans [2], 0.5 µg/mL (≈ 1.21 µM); in the series with Nakaseomyces glabratus [3] it was 128 µg/mL (≈ 309 µM); against Aspergillus fumigatus, > 128 µg/mL.

For the molecule `Oc1ccc(-c2nnc(SCC(O)(Cn3cncn3)c3ccc(F)cc3F)[nH]2)cc1` (centres undefined), the minimum inhibitory concentration (MIC) against Cryptococcus neoformans was > 128 µg/mL; with Candida albicans [1], > 128 µg/mL; against Candida albicans [2], > 128 µg/mL; in the series on Nakaseomyces glabratus [3] it was 128 µg/mL (≈ 297 µM); with Aspergillus fumigatus it was > 128 µg/mL.

`Cc1ccc(-c2nnc(SCC(O)(Cn3cncn3)c3ccc(F)cc3F)[nH]2)cc1` (centres undefined): the MIC is > 128 µg/mL in the series with Cryptococcus neoformans; 2 µg/mL (≈ 4.67 µM) with Candida albicans [1]; 2 µg/mL (≈ 4.67 µM) against Candida albicans [2]; 128 µg/mL (≈ 299 µM) against Nakaseomyces glabratus [3]; > 128 µg/mL against Aspergillus fumigatus.

With `COc1ccc(-c2nnc(SCC(O)(Cn3cncn3)c3ccc(F)cc3F)[nH]2)cc1` (centres undefined), the MIC is > 128 µg/mL against Cryptococcus neoformans; 4 µg/mL (≈ 9 µM) in the series with Candida albicans [1]; 2 µg/mL (≈ 4.5 µM) in the series on Candida albicans [2]; 4 µg/mL (≈ 9 µM) in the series with Nakaseomyces glabratus [3]; > 128 µg/mL in the series with Aspergillus fumigatus.

For the molecule `OC(CSc1nnc(-c2ccc(F)cc2)[nH]1)(Cn1cncn1)c1ccc(F)cc1F` (centres undefined), the MIC with Cryptococcus neoformans is > 128 µg/mL; against Candida albicans [1], 4 µg/mL (≈ 9.25 µM); in the series with Candida albicans [2], 8 µg/mL (≈ 18.5 µM); with Nakaseomyces glabratus [3], 4 µg/mL (≈ 9.25 µM); with Aspergillus fumigatus, > 128 µg/mL.

As for `OC(CSc1nnc(-c2ccc(Cl)cc2)[nH]1)(Cn1cncn1)c1ccc(F)cc1F` (centres undefined), the MIC was > 128 µg/mL against Cryptococcus neoformans; 1 µg/mL (≈ 2.23 µM) with Candida albicans [1]; 0.5 µg/mL (≈ 1.11 µM) against Candida albicans [2]; 128 µg/mL (≈ 285 µM) in the series with Nakaseomyces glabratus [3]; > 128 µg/mL against Aspergillus fumigatus.

As to `OC(CSc1nnc(-c2cccc(Br)c2)[nH]1)(Cn1cncn1)c1ccc(F)cc1F` (centres undefined), the MIC in the series on Cryptococcus neoformans was > 128 µg/mL; in the series on Candida albicans [1], 8 µg/mL (≈ 16.2 µM); in the series with Candida albicans [2], 8 µg/mL (≈ 16.2 µM); with Nakaseomyces glabratus [3], 128 µg/mL (≈ 259 µM); against Aspergillus fumigatus, > 128 µg/mL.

As usually defined, the IC50 is the concentration at which inhibition is half-maximal. A high value points to weaker potency in that assay. With `OC(CSc1nnc(-c2ccc(Cl)cc2Cl)[nH]1)(Cn1cncn1)c1ccc(F)cc1F` (centres undefined), the Stability entry in series [4] and in series [7] was “Stable” in each case. Besides, the Ratio in the series on Nakaseomyces glabratus [5] was 4; in the series on Candida albicans [6], 4; with Candida albicans [8], 8. Further, the minimal inhibitory concentration (MIC) in the series on Cryptococcus neoformans was 64 µg/mL (≈ 132 µM); against Candida albicans [1] it was 0.03 µg/mL (≈ 0.0621 µM); in the series with Candida albicans [2] it was 0.5 µg/mL (≈ 1.03 µM); in the series on Nakaseomyces glabratus [3], 0.25 µg/mL (≈ 0.517 µM); against Aspergillus fumigatus it was > 128 µg/mL. In addition, in the series on HepG2, the IC50 is > 250 µg/mL.

Regarding `OC(CSc1nnc(-c2ccncc2)[nH]1)(Cn1cncn1)c1ccc(F)cc1F` (centres undefined), the minimum inhibitory concentration (MIC) against Cryptococcus neoformans is > 128 µg/mL; in the series with Candida albicans [1] it was 64 µg/mL (≈ 154 µM); against Candida albicans [2], 64 µg/mL (≈ 154 µM); against Nakaseomyces glabratus [3], 128 µg/mL (≈ 308 µM); in the series on Aspergillus fumigatus, > 128 µg/mL.

For `OC(CSc1nnc(-c2ccccc2)[nH]1)(Cn1cncn1)c1ccc(Cl)cc1Cl` (centres undefined), the MIC against Cryptococcus neoformans was > 128 µg/mL; with Candida albicans [1], 1 µg/mL (≈ 2.24 µM); against Candida albicans [2], 4 µg/mL (≈ 8.94 µM); in the series on Nakaseomyces glabratus [3], 128 µg/mL (≈ 286 µM); against Aspergillus fumigatus, > 128 µg/mL.

For `Oc1ccc(-c2nnc(SCC(O)(Cn3cncn3)c3ccc(Cl)cc3Cl)[nH]2)cc1` (centres undefined), the minimal inhibitory concentration (MIC) in the series on Cryptococcus neoformans is 128 µg/mL (≈ 276 µM); with Candida albicans [1] it was 16 µg/mL (≈ 34.5 µM); with Candida albicans [2], 16 µg/mL (≈ 34.5 µM); in the series on Nakaseomyces glabratus [3], 128 µg/mL (≈ 276 µM); with Aspergillus fumigatus, > 128 µg/mL.

Turning to `Cc1ccc(-c2nnc(SCC(O)(Cn3cncn3)c3ccc(Cl)cc3Cl)[nH]2)cc1` (centres undefined), the MIC with Cryptococcus neoformans is 128 µg/mL (≈ 277 µM); in the series with Candida albicans [1], 0.125 µg/mL (≈ 0.271 µM); in the series with Candida albicans [2], 1 µg/mL (≈ 2.17 µM); in the series on Nakaseomyces glabratus [3], 128 µg/mL (≈ 277 µM); against Aspergillus fumigatus, > 128 µg/mL.

Regarding `COc1ccc(-c2nnc(SCC(O)(Cn3cncn3)c3ccc(Cl)cc3Cl)[nH]2)cc1` (centres undefined), the MIC is > 128 µg/mL with Cryptococcus neoformans; > 128 µg/mL in the series on Candida albicans [1]; 32 µg/mL (≈ 67 µM) against Candida albicans [2]; 128 µg/mL (≈ 268 µM) in the series on Nakaseomyces glabratus [3]; > 128 µg/mL against Aspergillus fumigatus.

With `OC(CSc1nnc(-c2ccc(F)cc2)[nH]1)(Cn1cncn1)c1ccc(Cl)cc1Cl` (centres undefined), the MIC was > 128 µg/mL in the series on Cryptococcus neoformans; 0.125 µg/mL (≈ 0.269 µM) in the series with Candida albicans [1]; 0.5 µg/mL (≈ 1.07 µM) against Candida albicans [2]; 128 µg/mL (≈ 275 µM) against Nakaseomyces glabratus [3]; > 128 µg/mL against Aspergillus fumigatus.

In the case of `OC(CSc1nnc(-c2ccc(Cl)cc2)[nH]1)(Cn1cncn1)c1ccc(Cl)cc1Cl` (centres undefined), the MIC was > 128 µg/mL in the series with Cryptococcus neoformans; 0.125 µg/mL (≈ 0.259 µM) against Candida albicans [1]; 0.5 µg/mL (≈ 1.04 µM) in the series on Candida albicans [2]; 128 µg/mL (≈ 266 µM) with Nakaseomyces glabratus [3]; > 128 µg/mL in the series with Aspergillus fumigatus.

For `OC(CSc1nnc(-c2cccc(Br)c2)[nH]1)(Cn1cncn1)c1ccc(Cl)cc1Cl` (centres undefined), the MIC is 4 µg/mL (≈ 7.6 µM) with Cryptococcus neoformans; 0.06 µg/mL (≈ 0.114 µM) against Candida albicans [1]; 0.25 µg/mL (≈ 0.475 µM) against Candida albicans [2]; 128 µg/mL (≈ 243 µM) against Nakaseomyces glabratus [3]; > 128 µg/mL in the series on Aspergillus fumigatus. Besides, in the series on Candida albicans [8], the Ratio is reported as 8.

Take `OC(CSc1nnc(-c2ccc(Cl)cc2Cl)[nH]1)(Cn1cncn1)c1ccc(Cl)cc1Cl` (centres undefined): the Ratio in the series with Nakaseomyces glabratus [5] was determined as 4; in the series on Candida albicans [6], 4; in the series with Candida albicans [8] it was 25. Moreover, the MIC in the series on Cryptococcus neoformans is 32 µg/mL (≈ 62 µM); in the series on Candida albicans [1], < 0.01 µg/mL; against Candida albicans [2], 0.5 µg/mL (≈ 0.969 µM); with Nakaseomyces glabratus [3], 0.25 µg/mL (≈ 0.484 µM); against Aspergillus fumigatus it was > 128 µg/mL. Moreover, in the series with HepG2, the midpoint of inhibition, the IC50, lay at 97.1 µg/mL (≈ 188 µM).

`OC(CSc1nnc(-c2ccncc2)[nH]1)(Cn1cncn1)c1ccc(Cl)cc1Cl` (centres undefined): the minimal inhibitory concentration (MIC) was > 128 µg/mL against Cryptococcus neoformans; 4 µg/mL (≈ 8.92 µM) against Candida albicans [1]; 8 µg/mL (≈ 17.8 µM) in the series on Candida albicans [2]; 128 µg/mL (≈ 285 µM) against Nakaseomyces glabratus [3]; > 128 µg/mL against Aspergillus fumigatus.

For `Nn1c(SCC(O)(Cn2cncn2)c2ccc(F)cc2F)nnc1-c1ccc(Cl)cc1Cl` (centres undefined), the minimal inhibitory concentration (MIC) in the series on Candida albicans [1] came to 16 µg/mL (≈ 32.1 µM).

`Nn1c(SCC(O)(Cn2cncn2)c2ccc(Cl)cc2Cl)nnc1-c1ccc(Cl)cc1Cl` (centres undefined) had an MIC against Candida albicans [1] of 8 µg/mL (≈ 15.1 µM).

On to `OC(Cn1cncn1)(Cn1cncn1)c1ccc(F)cc1F` [FLUCONAZOLE], for which the minimal inhibitory concentration (MIC) against Cryptococcus neoformans was determined as 4 µg/mL (≈ 13.1 µM); with Candida albicans [1], 0.25 µg/mL (≈ 0.816 µM); against Candida albicans [2], 2 µg/mL (≈ 6.53 µM); with Nakaseomyces glabratus [3], 64 µg/mL (≈ 209 µM); in the series on Aspergillus fumigatus it was 8 µg/mL (≈ 26.1 µM). For the same molecule, in the series on HepG2, the IC50 was > 250 µg/mL.
